pIC50: −log10 of the molar value. “Also recorded” adds a separate entry of the source. Read-outs that look alike come from different tables or passages of the source. One block for each compound: values may come before it.
How the values were obtained:
[1] = target: T1, Recombinant CKL4 kinase (Arabidopsis thaliana, UniProt Q8LPI7); assay: In vitro phosphorylation assay of CKL4 (32P phosphorylation of casein); format: biochemical
T1 sequence (Q8LPI7 1-414): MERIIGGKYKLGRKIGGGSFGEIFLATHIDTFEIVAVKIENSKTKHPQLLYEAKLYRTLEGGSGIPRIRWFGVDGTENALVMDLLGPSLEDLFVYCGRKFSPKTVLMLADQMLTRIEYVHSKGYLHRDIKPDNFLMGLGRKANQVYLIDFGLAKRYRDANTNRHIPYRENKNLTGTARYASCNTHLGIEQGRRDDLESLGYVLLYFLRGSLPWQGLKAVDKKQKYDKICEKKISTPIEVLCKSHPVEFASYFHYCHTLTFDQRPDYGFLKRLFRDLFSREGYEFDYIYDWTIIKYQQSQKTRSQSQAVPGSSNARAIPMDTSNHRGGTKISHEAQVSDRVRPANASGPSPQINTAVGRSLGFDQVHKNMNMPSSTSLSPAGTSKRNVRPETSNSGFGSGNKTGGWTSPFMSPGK
Method: In vitro phosphorylation assays using recombinant CKL4 were performed as described previously (Uehara et al., 2019), with synthetic small molecules. IC261 and PF‐670462 were purchased (Sigma‐Aldrich catalog numbers I0658 and SML0795, respectively). PHA767491 was synthesized as previously described (Uehara et al., 2019). All chemical compounds were dissolved in dimethyl sulfoxide (DMSO) as 10 mM stock solutions. Stock solutions were diluted with DMSO to the working concentration and added to assays in kinase reaction buffer (Uehara et al., 2019).
The activities of three known CK1 inhibitors were measured in vitro by a previously reported method (Uehara et al., 2019). Recombinant CKL4 kinase, casein, ^32P‐ATP, and different concentrations of the inhibitors were combined in a reaction buffer and kept at 37°C for 2 hr. Resulting samples were separated on a polyacrylamide gel by electrophoresis, and ^32P phosphorylation of casein was measured as an indicator of CKL4 kinase activity. IC50 (half‐maximal inhibitory concentration) was determined by calculating the results from at least two independent experiments. […] The stronger in vitro CK1 inhibitory activity shown by PF‐670462 relative to PHA767491 was consistent with previous reports (Uehara et al., 2019).

[2] = test system: CCA1:LUC seedlings; assay: Bioluminescence-based circadian period lengthening in CCA1:LUC seedlings; format: in vivo, Arabidopsis thaliana; details: for Period‐lengthening activity (in words) / Concentration required for 2‐hr period lengthening (2hLC) / Concentration required for 5‐hr period lengthening (5hLC): CCA1:LUC seedlings; for Concentration required for 2‐hr period lengthening (2hLC) / Concentration required for 5‐hr period lengthening (5hLC): constant light
Method: Bioluminescence‐based circadian rhythms of CCA1:LUC plants treated with small molecules were analyzed by auto‐luminescence detection (Churitsu CL96) as described previously (Uehara et al., 2019). Period length was automatically calculated as previously described (Kamioka et al., 2016).
To estimate CK1 inhibitor activity in vivo, we choose to measure circadian period‐lengthening activity in Arabidopsis seedlings. The assay was made more efficient by monitoring the circadian period using a clock reporter plant line (CCA1:LUC) and an automated luminometer. These tools can be used to measure the circadian period with high confidence, and estimates of in vivo CK1 inhibitor activity are quantitative (Uehara et al., 2019). Four‐day‐old CCA1:LUC seedlings grown under 12‐hr light/12‐hr dark conditions were treated with IC261, PF‐670462, and PHA767491 at different concentrations, and seedling luminescence was monitored under constant light conditions. Dimethyl sulfoxide (DMSO), the solvent used for all of the CK1 inhibitors, was used as a control. IC261 lengthened the circadian period of CCA1:LUC seedlings in a dose‐dependent manner (Figure 1d), with a 2‐hr period lengthening at 500 µM. PF‐670462 and PHA767491 treatment concentrations also correlated with period lengthening (Figure 1e and f). The concentrations required for 2‐hr lengthening effects were 90 µM for PF‐670472 and 47 µM for PHA767491, which was consistent with previous work (Uehara et al., 2019). Thus, PHA767491 was the strongest in vivo CK1 inhibitor among the three inhibitors tested.

[3] = test system: PRR7; assay: RT-qPCR of the CK1 downstream gene PRR7; format: in vivo, Arabidopsis; details: 10 and 50 µM, 6 hr
Method: Arabidopsis Col‐0 seedlings that had been grown under constant light conditions for […] were immersed in 10 or 50 µM of the GSK‐3, SHAGGY‐related, and BIN2 kinase inhibitor Bikinin (SML0094, Sigma) (De Rybel et al., 2009), […], or DMSO as control for 6 hr. Three biological replicates were used for each assay. Harvested seedlings were frozen in liquid nitrogen and crushed with zirconia beads in a Tissue Lyser II, and RNA was isolated with Illustra RNAspin (25‐0500‐72, GE Healthcare). RT‐qPCR was performed as described previously (Nakamichi et al., 2010) using an Eco Real‐Time PCR System (Illumina). Gene expression was normalized against IPP2, and maximal values were set to 1. Primers for detecting IPP2, PRR7, GR60ox2, and CPD were described previously (De Rybel et al., 2009; Kamioka et al., 2016).
Because the ATSK family was identified by the molecular probe assay as potential targets of AMI‐331, even though the affinities between AMI‐331 and ATSKs were not as high as between AMI‐331 and CK1, we used the ATSK inhibitor Bikinin to determine if AMI‐331 treatment affects the expression of genes downstream of ATSKs (De Rybel et al., 2009). Four‐day‐old Arabidopsis seedlings grown under constant light conditions were treated with Bikinin or AMI‐331 for 6 hr, and mRNA extracted from seedlings samples was analyzed by RT‐qPCR.

[4] = test system: CCA1:LUC seedlings; parameters: method as in Uehara et al., 2019; details: ref Uehara et al., 2019; cited from earlier work
[5] = test system: GR60ox2 and CPD; assay: RT-qPCR of the ATSK downstream genes GR60ox2 and CPD; format: in vivo, Arabidopsis; details: 10 or 50 µM, 6 hr
Method: […] Three biological replicates were used for each assay. Harvested seedlings were frozen in liquid nitrogen and crushed with zirconia beads in a Tissue Lyser II, and RNA was isolated with Illustra RNAspin (25‐0500‐72, GE Healthcare). RT‐qPCR was performed as described previously (Nakamichi et al., 2010) using an Eco Real‐Time PCR System (Illumina). Gene expression was normalized against IPP2, and maximal values were set to 1. Primers for detecting IPP2, PRR7, GR60ox2, and CPD were described previously (De Rybel et al., 2009; Kamioka et al., 2016).
Because the ATSK family was identified by the molecular probe assay as potential targets of AMI‐331, even though the affinities between AMI‐331 and ATSKs were not as high as between AMI‐331 and CK1, […] affects the expression of genes downstream of ATSKs (De Rybel et al., 2009). […]

[6] = test system: PRR5 and TOC1; parameters: method as in Uehara et al., 2019; details: ref Uehara et al., 2019; cited from earlier work
[7] = recombinant CKL4, casein, 32P‐ATP, 37°C for 2 hr, read-out: IC50 for in vitro CKL4 kinase activity

- pIC50 [1, 7]: 6.15
Structure (SMILES): O=C1NCCc2[nH]c(-c3ccncc3)c(Br)c21 [AMI‐23]
- Period‐lengthening activity (in words) [2]: Strong activities
- Concentration required for 2‐hr period lengthening (2hLC) [2]: 1.5 µM
- Concentration required for 5‐hr period lengthening (5hLC) [2]: 5.0 µM

Structure (SMILES): O=C1NCCc2[nH]c(-c3ccncc3)c(Cl)c21 [AMI‐24]
- Period‐lengthening activity (in words) [2]: Strong activities

Structure (SMILES): Cl.O=C1NCCc2c1cc(-c1ccncc1)n2CCn1cccc1 [AMI‐118]
- Period‐lengthening activity (in words) [2]: weak period‐lengthening activity

Structure (SMILES): CCn1c(-c2ccncc2)cc2c1CCNC2=O [AMI‐126]
- Period‐lengthening activity (in words) [2]: strong activity

- pIC50 [1, 7]: 5.92
Structure (SMILES): C#CCn1c(-c2ccncc2)cc2c1CCNC2=O [AMI‐212]
- Period‐lengthening activity (in words) [2]: weak period‐lengthening activity; also recorded: stronger period‐lengthening activity than AMI‐126
- Concentration required for 2‐hr period lengthening (2hLC) [2]: around 7.0 µM
- Concentration required for 5‐hr period lengthening (5hLC) [2]: 26 µM
- Concentration required for 2‐hr period lengthening (2hLC) ([2]; listed as AMI-212): 7.0 µM
- Period‐lengthening (in vivo inhibitory) activity relative to PHA767491 ([2]; compared with parent PHA767491): approximately fivefold higher

Structure (SMILES): Cc1c(-c2ccncc2)[nH]c2c1C(=O)NCC2 [AMI‐217]
- Period‐lengthening activity (in words) [2]: Strong activities

Structure (SMILES): O=C(O)CCC(=O)Nc1ccc(Br)cn1 [Bikinin, reference compound]
- PRR7 transcript abundance [3]: did not affect
- Period lengthening on inhibition of ATSKs [4]: did not result in period lengthening
- GR60ox2 and CPD transcript abundance [5]: reduced

Structure (SMILES): COc1cc(OC)c(C=C2C(O)=Nc3ccccc32)c(OC)c1 [IC261, reference compound]
- pIC50 [1]: 5.17

- pIC50 [1, 7]: 6.10
Structure (SMILES): Nc1nccc(-c2c(-c3ccc(F)cc3)ncn2C2CCCCC2)n1 [PF‐670462, reference compound]

- pIC50 [1, 7]: 5.23
Structure (SMILES): Cl.O=C1NCCc2[nH]c(-c3ccncc3)cc21 [PHA767491, 1,5,6,7‐tetrahydro‐2‐(4‐pyridinyl)‐4H‐pyrrolo[3,2‐c]pyridin‐4‐one hydrochloride]
- Effective concentration of PHA767491 as CK1 inhibitor in plants [4]: more than 40 µM
- Effective concentrations for PRR5 or TOC1 accumulation [6]: 250 to 500 µM
